Laboratory results taken from patent EP1214938A2, “Modulation of cellular response to external stimuli” (priority 1991, dated 1992).

Assays:
T cell proliferation = conditions: Singer et al.; cited from earlier work
NIH3T3 cell line (D5C3) = test: Blocking transformed phenotype of D5C3 cells (temperature-sensitive v-abl); type: cell-based, murine; design: key to Phenotype: 1+ represents a typical fibroblastic appearance of nontransformed NIH3T3 cells; visually graded on a scale of + (1+) to +++++ (5+); visually graded on a scale of + (1+) to +++++ (5+); +++++: 5+ represents a fully transformed phenotype; key to Growth: the nontransformed cells were scored as 1+ (for slower growth); graded from + (1+) to +++++ (5+); graded from + (1+) to +++++ (5+); +++++: the transformed cells were scored as 5+ (for rapid growth); conditions: for Growth / Phenotype: ciprofloxacin 50 µg/ml; for Phenotype: visually graded
Description: In an additional assay method of the invention, the effect of coadministering a xanthine compound with a candidate inhibitor for P450 can be assessed using transformed NIH3T3-[…] cells and comparing the effect on transformation phenotype among control, incubation with the xanthine derivative alone, and coincubation of the xanthine derivative with the P450 enzyme inhibitor. An NIH3T3 cell line ([…]) provides target cells which were transformed by an activated oncogene. The cells were transformed with a temperature-sensitive v-abl mutant gene. This mutant gene encodes a temperature-sensitive v-abl protein that produces a non-oncogenic product at a non-permissive temperature due to a lack of tyrosine phosphorylation. The cells were incubated at the permissive temperature (33°C) for 5 days after passage with and without pentoxifylline (1 mM).

[1] = test system: HLA-DR, the transferrin receptor (CD71), the IL-2 receptor (CD25), and CD69; conditions: MLR-stimulated lymphocytes; Singer et al.; cited from earlier work
[2] = test system: IL-8 encoding mRNA in U937 and THP1; test: Northern blot of IL-8 mRNA after lipopolysaccharide or GM-CSF induction; type: cell-based
Description: The murine fibrosarcoma cell line, L929, was also tested as an indicator for assays of TNF cytotoxicity. Cell growth was assayed by crystal violet staining using optical density as a measure of growth. […] Finally, two monocytic cell lines, U937 and THP1, were used to test the effect of pentoxifylline on the […] of the cytokine IL-8. The cell lines in culture were induced to upregulate IL-8 production by lipopolysaccharide or GM-CSF.

[3] = test system: human leukemic cell line (Mo7e); test: GM-CSF-stimulated colony formation in semisolid medium; type: cell-based; conditions: colonies counted 10 days after culture initiation; Figure 14
Description: The human leukemic cell line (Mo7e) is dependent on added granulocyte-macrophage colony-stimulating factor (GM-CSF) for growth. Mo7e cells were cultured in semisolid medium with and without pentoxifylline (PTX) and rhGM-CSF. Colonies were counted 10 days after culture initiation under an inverted microscope. […] PTX thus prevents the up-regulation of activation-associated genes which inhibit proliferation.

[4] = test system: IL-2 transcripts in CD3 positive lymphocytes; test: Northern blot, mixed lymphocyte reaction; type: cell-based; conditions: Figure 19B
[5] = test system: IL-2 receptor transcripts in CD3 positive lymphocytes; test: Northern blot, mixed lymphocyte reaction; type: cell-based; conditions: Figure 19C
[6] = test system: TNF transcripts in CD3 positive lymphocytes; test: Northern blot, mixed lymphocyte reaction; type: cell-based; conditions: Figure 19A
[7] = test system: lyso-PA acyl transferase (LPAAT); test: Invention assay (lipid HPLC after IL-1), indirect enzyme inhibition; type: cell-based, Human; conditions: IL-1-stimulated HMC
Description: (§1) As shown hereinbelow, a simple assay involving incubation of target cells with primary stimulus in the presence or absence of the xanthine derivative followed by extraction and analysis of lipid content is diagnostic of the levels of various members of the foregoing pathway as characterized by their fatty acyl content. This assay indirectly measures the effect of the xanthine derivative on the relevant enzymes lysophosphatidic acid acyltransferase (LPAAT) and phosphatidic acid phosphoryl hydrolase (PAPH). In general, inhibition of these enzymes is effected by the xanthine derivative, thus resulting in lowering of the levels of the relevant species of the particular acylated subspecies of PA and DAG intermediates.
(§2) This example also illustrates the method of the invention.
(§3) Human glomerular mesangial cells were incubated with IL-1 for various time periods of 5-60 seconds and the cells were fixed in ice-cold methanol, and the lipids extracted using chloroform:methanol 2:1 (v/v). It is very important that the fixing/extraction process be conducted quickly so that the decomposition of unstable intermediates is halted.
(§4) The extracts were subjected to HPLC on a Rainin mu-Porasil column with a 3:4 hexane:propanol organic carrier and a 1-10% water gradient during the first 10 minutes of separation. The relative concentration of each lipid species is determined using absorption at 206 nm (A206), which follows unsaturated acyl content of lipid species. […] The absolute mass of each lipid species is determined by isolation of the lipid using a fraction collector, repurification on the HPLC column. Determination of phospholipid phosphorus is as nmoles/mg cellular protein. Protein concentration is determined using the Bradford technique.
(§5) Thus, the lyso PA that accumulates contains high levels of unsaturated fatty acids. Pentoxifylline in a dose range greater than 500 µM results in inhibition both of phosphatidate phosphohydrolase and of lyso PA acyl transferase.

[8] = test system: phosphatidic acid phosphohydrolase (PAPH); test: as above; type: cell-based, Human
Description: as §1, §2, §3, §4, §5

[9] = test system: IL-6 transcripts in bone marrow stromal cells; test: Northern blot of IL-6 transcripts; type: cell-based; conditions: three-hour exposure, increasing concentrations
[10] = test system: Human glomerular mesangial cells; test: Invention assay: HPLC of lipids (PA, DAG) extracted from IL-1-stimulated mesangial cells; type: cell-based
Description: The compounds of Formula I are shown to modulate the effects of primary stimuli which elevate levels of the relevant subspecies of PA and DAG using the assay system of the invention. In general for the assay, the cells to be tested are first incubated with the primary stimulating agent for various time periods and fixed in ice-cold methanol. The lipids are extracted using, for example, chloroform:methanol 2:1 (v/v), and the extracts are then subjected to HPLC as described by Bursten and Harris, Biochemistry (1991) . In this method, a Rainin mu-Porasil column is used with a 3:4 hexane:propanol organic carrier and a 1-10% water gradient during the first 10 minutes of separation. Detection of the peaks in the elution pattern is by absorption in the range of ultraviolet which detects isolated double bonds. Thus, the relevant peaks of unsaturated PA and DAG are shown in the elution pattern. It is important to note that the assay method permits discrimination between various forms of PA and DAG so that those relevant to the pathway affected by the compounds of Formula I can be measured directly. Confirmation of the nature of the acyl substituents of these components is accomplished using fast-atom bombardment mass spectroscopy. Thus, the relevant unsaturated (non-arachidonic) PA and DAG subspecies may be detected. The time periods employed are 5-60 seconds after stimulation with the primary stimulus, such as a cytokine. This technique permits assessment of the levels of various lipid components as a function of time. […]
as §4, with “Determination of phospholipid phosphorus is as nmoles/mg cellular protein.” left out, “technique. […]” for “technique.”

CD3-positive lymphocytes = test: Proliferation (thymidine uptake) of CD2-positive cells stimulated by anti-CD3 monoclonal antibody; type: cell-based
Description: In these experiments, freshly isolated, CD2-positive cells were stimulated by a solid-phase monoclonal antibody to acquire a CD3 phenotype, and then PTX was added. […] The block in proliferation could not be overcome by addition of either tumor necrosis factor (Figures 20 and 21) or IL-1 (Figure 21). […] The cytokines and PTX were added at culture inception and the cells were harvested after 5 days.

[11] = test system: NIH3T3 murine fibroblast cells transformed with a mutated K-ras; test: Subcutaneous tumors of K-ras-transformed NIH3T3 cells in nude mice; type: in vivo; conditions: after eight days, 10^6 cells subcutaneously
Description: Nude mice were injected subcutaneously with 10^6 cells and were treated either once or twice daily with 100 mg/kg pentoxifylline intraperitoneally. Control animals treated with only saline injections developed tumors that weighed 2.5 ±0.2 g after eight days. Animals treated once daily with pentoxifylline had tumors that weighed only 0.45 ±0.2 g while animals treated twice daily had tumors that weighed 0.2 ±0.1 g.

[12] = test system: Steel factor transcripts in marrow stromal cell lines; test: Northern blot of Steel factor transcripts; type: cell-based; conditions: three-hour incubation; passaged (native) or cloned (CDCL) lines
[13] = test system: TNFα transcripts in U937 cells; test: Northern blot of TNF transcripts after LPS induction; type: cell-based; conditions: 1 mM PTX; LPS for three hours
[14] = test system: SV40 T-antigen-transformed human kidney mesangial cells; test: Growth of transformed mesangial cells by tritiated thymidine uptake; type: cell-based
Description: SV40 T-antigen-transformed human kidney mesangial cells were cultured under standard conditions with rhIL-1 or with TNFα with and without pentoxifylline (PTX). Transformed mesangial cells grow independently of added growth factors, but IL-1 and TNFα are the normal proliferative signals for mesangial cells. As was shown in Example 1, when IL-1 is added to kidney mesangial cells, within 30 seconds LPAAT and PAPH are activated; the effect of both of these enzymes is inhibited by pentoxifylline at 1 mM. In this experiment, the growth of the treated cells was measured using tritiated thymidine uptake.

[15] = test system: NIH3T3 murine fibroblast cells transformed with a mutated K-ras; test: Growth and anchorage-independent growth in soft agar of K-ras-transformed cells in vitro; type: cell-based; conditions: Mus musculus, NIH3T3, read-out: concentrations resulting in inhibition of growth and suppression of anchorage-independent growth
Description: Additionally, NIH3T3 murine fibroblast cells transformed with a mutated K-ras (codon 12 Gly-Val) were tested in vitro and in nude mice.

[16] = 33°C, 5 days, pentoxifylline 1 mM

CC(O)C(O)CCCn1c(=O)c2c(ncn2C)n(C)c1=O (stereo not drawn) [M3, 1-(4,5-dihydroxyhexyl) -3,7-dimethylxanthine]
suppression of T cell proliferation (T cell proliferation): minimal or no suppression

O=C(O)c1cn(C2CC2)c2cc(N3CCNCC3)c(F)cc2c1=O [Ciprofloxacin]
Growth (NIH3T3 cell line (D5C3); [16]): ++ | Phenotype (NIH3T3 cell line (D5C3); [16]): ++ | inhibition of the transformed phenotype (NIH3T3 cell line (D5C3); pentoxifylline 1 mM, Ciprofloxacin 50 µg/ml): significant effect

Cn1c(=O)n(CCCCC(C)(C)O)c(=O)c2[nH]cnc21 [HWA138]
suppression of T cell proliferation (T cell proliferation): minimal or no suppression

Cn1cnc2c1c(=O)n(CCCC(=O)O)c(=O)n2C [M5, 1-(3-carboxypropyl)-3,7-dimethylxanthine]
suppression of T cell proliferation (T cell proliferation): minimal or no suppression

CC(O)CCCCn1c(=O)c2c(ncn2C)n(C)c1=O (stereo not drawn) [M1, 1-(5-hydroxyhexyl) -3,7-dimethylxanthine]
suppression of T cell proliferation (T cell proliferation): active

Cn1cnc2c1c(=O)n(CCCCC(=O)O)c(=O)n2C [M4, 1-(4-carboxybutyl)-3,7-dimethylxanthine]
suppression of T cell proliferation (T cell proliferation): minimal or no suppression

CC(=O)CCCCn1c(=O)c2c(ncn2C)n(C)c1=O [Pentoxifylline]
expression of cell surface antigens on lymphocytes [1]: decreased | synthesis of IL-8 [2]: did not inhibit | proliferation of lymphocytes induced by anti-CD3 (T cell proliferation): suppressed | GM-CSF-stimulated growth of colonies [3]: enhanced | IL-2 transcripts [4]: but not of IL-2 transcripts | IL-2 receptor transcripts [5]: suppression | TNF transcripts [6]: suppression | dose range resulting in inhibition of lyso PA acyl transferase [7]: greater than 500 µM | inhibition of PAPH ([8]; 0.5 mM): inhibits | dose range resulting in inhibition of phosphatidate phosphohydrolase ([8]; IL-1-stimulated HMC): greater than 500 µM | production of IL-6 transcripts [9]: increased | cyclical formation of PA, and conversion of PA to DAG ([10]; 100 µM pentoxifylline, 10^-11 M IL-1, 15- and 60-second points): no change | conversion of PA to DAG ([10]; 500 µM pentoxifylline, 10^-11 M IL-1, 15 second time point): slight attenuation | elevation of PA and DAG by IL-1 ([10]; 1 mM, all time points examined (15-60 seconds)): abolishes | Proliferation of CD3-positive lymphocytes (CD3-positive lymphocytes; CD2-positive cells stimulated by solid-phase monoclonal antibody): strikingly inhibited | thymidine uptake (CD3-positive lymphocytes; antibody 64.1, harvested after 5 days, not reversed by IL-1 or TNF): diminished | appearance of cells (NIH3T3 cell line (D5C3); 1 mM, 33°C, 5 days): predominantly non-transformed, fibroblastic appearance | Growth (NIH3T3 cell line (D5C3); [16]): +++ | Phenotype (NIH3T3 cell line (D5C3); [16]): +++ | inhibition at 1000 µM (NIH3T3 cell line (D5C3); Mus musculus, NIH3T3, 120 h, 1 mM, 33°C, 5 days, read-out: overall number of cells diminished): ~50% | tumor weight ([11]; 100 mg/kg intraperitoneally once daily): 0.45 ± 0.2 g | tumor weight ([11]; 100 mg/kg intraperitoneally twice daily): 0.2 ± 0.1 g | levels of Steel factor transcripts [12]: increases | TNF RNA obtained in response to LPS stimulation [13]: undetectable level | proliferative effect of TNF ([14]; TNFα, Figure 13B): enhances | growth stimulated by IL-1 ([14]; rhIL-1, Figure 13A): arrested growth | minimal effective concentration [15]: ≥ 500 µM

CCOCn1cnc2c1c(=O)n(CCCCC(C)(C)O)c(=O)n2C [HWA448]
suppression of T cell proliferation (T cell proliferation): active
